Several values for one entry are separate records, joined by “and”; a condition that tells them apart may be missing. Identical values can stand only once.
Assays:
[1] = test system: MCF-7 breast cancer cells; test: MTT cytotoxicity assay; type: cell-based; details: for IC50: MCF-7 cells, MTT, 48 h, mean ± SD of three independent values; for fold higher potency than reference drug staurosporine against MCF-7: versus staurosporine
Experimental: The National Research Institute in Egypt donated the breast cancer (MCF-7) cells, which were collected and cultured in RPMI-1640 medium L-glutamine (Lonza Verviers SPRL, Verviers, Belgium, cat#12-604F). The 10% fetal bovine serum (FBS; Sigma-Aldrich, St. Louis, MO, USA) and 1% penicillin-streptomycin (Lonza, Belgium) were given to each of the two cell lines.
All cells were cultured, following routine tissue culture work, in 5% CO2 humidified at 37 °C. Cells were exposed to compounds at concentrations of 0.01, 0.1, 1, 10, and 100 μM on the second day of culturing. After 48 h, cell viability was evaluated using the MTT solution (Promega, Madison, WI, USA). MTT dye (20 μL) was placed into each well, and the plate was then incubated for three hours. Absorbance was subsequently measured at 570 nm using the ELISA microplate reader (BIO-RAD, model iMark, Tokyo, Japan), and the percentage of cell viability was calculated, compared to control, as (mean absorbance of tested compound)/(mean absorbance in control) × 100. Finally, IC50 values were found using the nonlinear dose–response sigmoidal curve in GraphPad Prism 7 [39].

[2] = test system: MCF-7 cells; test: Wound-healing assay (scratch assay); type: cell-based; details: MCF-7, treated at IC50 of compound, 48 h, mean ± SD
Experimental: The wound-healing test was mentioned in previous research. Six-well plates containing starvation media were filled with four […] MCF-7 cells per well, and the plates were subsequently incubated at 37 °C for the whole night. A sterile 1 mL pipette tip was used to generate a scratch of the cell monolayer once it was established the following day that the cells had adhered to the well and that cell confluence had reached 90%. Starvation media was used to clean the cells before they were removed from the plates. […] After 48 h, the medium was immediately changed to PBS, the wound gap was examined, and cells—both control and treated—were captured on camera with a digital camera attached to an Olympus microscope. The region where the wound closes was measured.

[3] = test system: MCF-7 cells; test: Annexin V/PI staining flow cytometry (apoptosis/necrosis); type: cell-based; details: MCF-7, treated at IC50, 48 h
Experimental: (§1) Annexin V/PI staining and cell cycle analysis […] MCF-7 cells were added to 6-well culture plates, which were then placed in the incubator for the night. […] Following that, PBS was rinsed with ice-cold water before cells and media supernatants were gathered. The cells were then treated with “Annexin V-FITC solution (1:100) and propidium iodide (PI)” at a concentration of 10 µg/mL for 30 min in the dark after being suspended in […] of annexin-binding buffer solution, which was composed of 25 mM CaCl2, 1.4 M NaCl, and 0.1 M Hepes/NaOH, pH 7.4. Then, labeled cells were collected using the Cytoflex FACS system. The data were assessed using the cytExpert program.

[4] = test system: MCF-7 cells; test: DNA content flow cytometry (cell cycle analysis); type: cell-based; details: MCF-7, treated at IC50, 48 h
Experimental: as §1

[5] = molecular target: T1, AKT-1 (Homo sapiens, UniProt P31749); test: Kinase inhibitory assay (ELISA kit); type: biochemical; details: average of three independent replicates; read-out: IC50 ± SD AKT-1
T1 construct: purchased Bioscience, USA #78038
T1 sequence (P31749 whole entry): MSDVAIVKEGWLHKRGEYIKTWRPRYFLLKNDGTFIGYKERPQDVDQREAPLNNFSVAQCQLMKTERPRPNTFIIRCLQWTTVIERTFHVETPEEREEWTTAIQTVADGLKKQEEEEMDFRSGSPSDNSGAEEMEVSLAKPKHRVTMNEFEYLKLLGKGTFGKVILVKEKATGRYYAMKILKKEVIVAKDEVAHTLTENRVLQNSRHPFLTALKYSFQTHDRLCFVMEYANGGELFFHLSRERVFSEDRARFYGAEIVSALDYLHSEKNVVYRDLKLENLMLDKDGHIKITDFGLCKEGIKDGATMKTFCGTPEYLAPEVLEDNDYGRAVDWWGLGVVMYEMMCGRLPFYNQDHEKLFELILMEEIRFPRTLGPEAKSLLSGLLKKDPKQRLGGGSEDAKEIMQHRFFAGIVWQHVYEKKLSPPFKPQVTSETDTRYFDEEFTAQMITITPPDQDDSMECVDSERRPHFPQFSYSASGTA
Experimental: (§2) The following calculation was used to compute the proportion that chemicals inhibited autophosphorylation: […]. Using the GraphPad prism7 program, the IC50 was calculated using the curves of percentage inhibition of five concentrations of each chemical.

[6] = molecular target: T2, CDK2 (Homo sapiens, UniProt P24941); test: Kinase inhibitory assay (ELISA kit); type: biochemical; details: average of three independent replicates; read-out: IC50 ± SD CDK2
T2 construct: purchased Bioscience, USA #79599
Experimental: as §2

[7] = molecular target: T3, EGFR (Homo sapiens, UniProt P00533); test: Kinase inhibitory assay (ELISA kit); type: biochemical; details: average of three independent replicates; read-out: IC50 ± SD EGFR
T3 construct: purchased Bioscience, USA #40321
Experimental: as §2

[8] = molecular target: T4, PI3K-α (Homo sapiens, UniProt P42336); test: Kinase inhibitory assay (ELISA kit); type: biochemical
T4 construct: purchased Bioscience, USA #40639
T4 sequence (P42336 whole entry): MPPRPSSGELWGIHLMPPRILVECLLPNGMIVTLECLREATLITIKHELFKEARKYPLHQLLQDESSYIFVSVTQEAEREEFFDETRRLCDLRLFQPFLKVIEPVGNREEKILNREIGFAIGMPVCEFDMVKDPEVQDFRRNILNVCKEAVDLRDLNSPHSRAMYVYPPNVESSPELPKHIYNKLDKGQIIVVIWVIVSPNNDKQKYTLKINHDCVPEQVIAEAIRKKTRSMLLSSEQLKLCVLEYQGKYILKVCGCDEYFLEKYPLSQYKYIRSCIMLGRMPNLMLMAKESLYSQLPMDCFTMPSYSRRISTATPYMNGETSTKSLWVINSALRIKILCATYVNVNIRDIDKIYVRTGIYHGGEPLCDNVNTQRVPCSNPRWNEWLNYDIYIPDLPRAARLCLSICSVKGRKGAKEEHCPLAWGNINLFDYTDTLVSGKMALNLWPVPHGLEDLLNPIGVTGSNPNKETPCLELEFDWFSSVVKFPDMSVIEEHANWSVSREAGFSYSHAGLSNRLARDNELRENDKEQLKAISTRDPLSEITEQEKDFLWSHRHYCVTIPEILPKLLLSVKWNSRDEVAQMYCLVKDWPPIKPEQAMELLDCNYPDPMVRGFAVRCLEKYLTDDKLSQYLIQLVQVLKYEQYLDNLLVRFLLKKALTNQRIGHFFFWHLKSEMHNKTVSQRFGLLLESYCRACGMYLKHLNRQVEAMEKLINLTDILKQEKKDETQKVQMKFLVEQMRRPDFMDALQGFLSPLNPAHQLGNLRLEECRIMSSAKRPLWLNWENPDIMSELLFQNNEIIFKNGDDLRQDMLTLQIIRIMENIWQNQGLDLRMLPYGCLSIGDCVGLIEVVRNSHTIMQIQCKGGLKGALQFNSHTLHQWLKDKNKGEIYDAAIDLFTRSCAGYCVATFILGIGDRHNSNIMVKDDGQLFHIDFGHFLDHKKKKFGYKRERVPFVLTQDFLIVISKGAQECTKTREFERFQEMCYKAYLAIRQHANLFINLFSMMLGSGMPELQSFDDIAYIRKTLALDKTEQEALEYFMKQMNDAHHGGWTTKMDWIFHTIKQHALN
T4 sequence (P27986 whole entry partner): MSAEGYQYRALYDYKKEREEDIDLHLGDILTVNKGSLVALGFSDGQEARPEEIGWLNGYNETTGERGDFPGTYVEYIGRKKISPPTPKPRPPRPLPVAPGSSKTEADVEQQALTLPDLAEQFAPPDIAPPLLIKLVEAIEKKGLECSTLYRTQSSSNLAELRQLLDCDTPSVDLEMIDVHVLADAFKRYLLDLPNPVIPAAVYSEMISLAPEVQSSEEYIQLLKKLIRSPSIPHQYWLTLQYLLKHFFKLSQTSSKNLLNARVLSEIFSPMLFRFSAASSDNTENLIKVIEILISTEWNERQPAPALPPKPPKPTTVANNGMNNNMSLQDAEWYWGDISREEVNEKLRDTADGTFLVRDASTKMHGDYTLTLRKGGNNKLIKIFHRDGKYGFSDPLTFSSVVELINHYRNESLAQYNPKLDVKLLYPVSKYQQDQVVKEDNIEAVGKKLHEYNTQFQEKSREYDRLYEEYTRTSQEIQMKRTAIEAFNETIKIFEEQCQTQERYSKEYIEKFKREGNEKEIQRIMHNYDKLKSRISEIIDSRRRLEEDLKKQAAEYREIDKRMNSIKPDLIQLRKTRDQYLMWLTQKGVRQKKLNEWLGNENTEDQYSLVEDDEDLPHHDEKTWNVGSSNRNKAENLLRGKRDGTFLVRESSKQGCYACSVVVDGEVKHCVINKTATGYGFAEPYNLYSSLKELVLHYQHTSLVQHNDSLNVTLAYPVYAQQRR
Experimental: as §2

[9] = molecular target: T5, PI3K-β (Homo sapiens, UniProt P42338); test: Kinase inhibitory assay (ELISA kit); type: biochemical; details: average of three independent replicates; read-out: IC50 ± SD PI3K-β
T5 construct: purchased Bioscience, USA #79802
T5 sequence (P42338 whole entry): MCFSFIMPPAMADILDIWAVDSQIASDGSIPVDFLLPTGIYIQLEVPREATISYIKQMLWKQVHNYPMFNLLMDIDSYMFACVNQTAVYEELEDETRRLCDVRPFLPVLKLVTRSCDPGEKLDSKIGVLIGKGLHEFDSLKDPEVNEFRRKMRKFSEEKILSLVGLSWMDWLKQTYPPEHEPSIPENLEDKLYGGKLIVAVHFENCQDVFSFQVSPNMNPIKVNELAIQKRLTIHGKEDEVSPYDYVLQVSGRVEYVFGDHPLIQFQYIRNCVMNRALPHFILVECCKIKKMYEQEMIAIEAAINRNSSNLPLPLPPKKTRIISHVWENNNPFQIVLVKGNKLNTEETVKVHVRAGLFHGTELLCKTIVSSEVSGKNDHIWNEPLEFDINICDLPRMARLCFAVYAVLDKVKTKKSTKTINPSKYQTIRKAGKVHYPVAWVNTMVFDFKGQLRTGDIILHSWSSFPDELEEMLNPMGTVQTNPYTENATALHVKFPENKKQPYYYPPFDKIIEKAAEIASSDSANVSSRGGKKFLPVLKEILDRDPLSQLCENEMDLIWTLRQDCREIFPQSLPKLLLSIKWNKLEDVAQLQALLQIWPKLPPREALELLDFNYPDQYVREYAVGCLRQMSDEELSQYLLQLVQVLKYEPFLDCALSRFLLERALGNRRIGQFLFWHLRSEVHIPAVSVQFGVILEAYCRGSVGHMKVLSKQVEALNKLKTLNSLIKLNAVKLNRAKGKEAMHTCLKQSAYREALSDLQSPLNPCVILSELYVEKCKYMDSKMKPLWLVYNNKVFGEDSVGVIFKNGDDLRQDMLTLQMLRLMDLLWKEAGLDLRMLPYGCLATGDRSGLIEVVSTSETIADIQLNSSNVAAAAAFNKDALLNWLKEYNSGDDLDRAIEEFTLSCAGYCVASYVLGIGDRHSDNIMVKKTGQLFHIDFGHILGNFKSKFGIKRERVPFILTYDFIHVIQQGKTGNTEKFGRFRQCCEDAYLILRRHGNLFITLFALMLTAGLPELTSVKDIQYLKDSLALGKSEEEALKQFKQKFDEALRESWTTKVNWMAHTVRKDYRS
T5 sequence (P27986 whole entry partner): as the sequence (P27986 whole entry partner) above
Experimental: as §2

[10] = molecular target: T6, PI3K-δ (Homo sapiens, UniProt O00329); test: Kinase inhibitory assay (ELISA kit); type: biochemical; details: average of three independent replicates; read-out: IC50 ± SD PI3K-δ
T6 construct: purchased Bioscience, USA #40628
T6 sequence (O00329 whole entry): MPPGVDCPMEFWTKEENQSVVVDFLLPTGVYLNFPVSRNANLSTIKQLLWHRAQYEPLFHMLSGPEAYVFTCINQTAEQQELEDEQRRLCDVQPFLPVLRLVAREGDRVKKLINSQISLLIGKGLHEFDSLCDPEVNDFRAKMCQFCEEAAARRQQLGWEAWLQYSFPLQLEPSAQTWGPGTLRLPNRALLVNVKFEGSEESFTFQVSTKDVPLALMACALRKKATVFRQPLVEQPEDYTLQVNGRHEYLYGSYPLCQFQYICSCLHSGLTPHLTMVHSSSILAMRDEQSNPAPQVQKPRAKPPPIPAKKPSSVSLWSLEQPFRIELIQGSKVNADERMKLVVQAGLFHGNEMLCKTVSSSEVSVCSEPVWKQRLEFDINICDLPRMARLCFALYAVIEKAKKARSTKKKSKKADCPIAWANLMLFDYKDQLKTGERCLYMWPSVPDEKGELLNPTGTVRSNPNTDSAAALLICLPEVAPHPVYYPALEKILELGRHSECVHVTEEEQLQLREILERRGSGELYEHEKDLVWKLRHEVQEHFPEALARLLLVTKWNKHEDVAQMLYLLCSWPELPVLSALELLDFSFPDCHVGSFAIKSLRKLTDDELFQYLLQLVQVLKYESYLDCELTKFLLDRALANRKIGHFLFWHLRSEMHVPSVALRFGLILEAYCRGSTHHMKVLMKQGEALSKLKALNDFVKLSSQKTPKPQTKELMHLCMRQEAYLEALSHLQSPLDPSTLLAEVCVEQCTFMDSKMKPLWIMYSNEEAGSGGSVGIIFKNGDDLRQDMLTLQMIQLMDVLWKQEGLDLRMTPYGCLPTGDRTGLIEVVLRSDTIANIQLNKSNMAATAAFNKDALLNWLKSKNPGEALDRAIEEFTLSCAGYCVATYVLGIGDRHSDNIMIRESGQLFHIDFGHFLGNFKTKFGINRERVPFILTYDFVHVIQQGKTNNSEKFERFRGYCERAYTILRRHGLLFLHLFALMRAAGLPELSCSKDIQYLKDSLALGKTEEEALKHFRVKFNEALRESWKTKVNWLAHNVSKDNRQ
T6 sequence (P27986 whole entry partner): as the sequence (P27986 whole entry partner) above
Experimental: EGFR (catalog #40321), CDK2 (catalog #79599), AKT (catalog #78038), PI3K-α (catalog #40639), β (catalog #79802), and δ (catalog #40628) kinase inhibitions were conducted using an ELISA kit in accordance with the manufacturer instructions from Bioscience, USA. To assess the inhibitory potency of compound 5 against the kinase activity, kinase inhibitory tests were carried out. The following calculation was used to compute the proportion that chemicals inhibited autophosphorylation: […]. Using the GraphPad prism7 program, the IC50 was calculated using the curves of percentage inhibition of five concentrations of each chemical.

[11] = test system: Solid Ehrlich carcinoma (SEC); test: In vivo antitumor activity in SEC-bearing mice; parameters: species or system Swiss albino mice; details: IP, 5 mg/kg; for solid tumor mass: SEC control 398.1 mg; for tumor proliferation inhibition (TIR%): TIR% = C − T/C × 100
Experimental: The Suez Canal University Research Ethics Committee gave the experimental procedure their seal of approval (approval number REC219/2023, Faculty of Science, Suez Canal University). The full, detailed methodology is supported in the Supplementary Materials.
Animals and tumor cell line
Adult female Swiss albino mice purchased from Theodor Bilharzia Research Institute, Giza, Egypt, with an average body weight of (18-23) g was used. Mice were housed under constant conditions of 12 h light/dark cycle in a […], with free access to standard laboratory mice food and water .All procedures related to care and maintenance of the animals were performed according to the international guiding principles for animal research and approved by Faculty of Science, Suez Canal University bioethics and animal ethics committee (Approval […]
Solid Ehrlich carcinoma (SEC) were got from the National Cancer Institute (Cairo University, Egypt). The tumor cell line was proliferated in mice through serial intraperitoneal (I.P.) transplantation of a volume of 0.2 mL physiological saline contains 1 × 10^6 viable cells for 24 h. SEC cells were collected 7 days after I.P. implantation. The harvested cells were diluted with saline to obtain a concentration of 5 × 10^6 viable SEC cells/mL. A volume of 0.2 mL saline contains 1 × 10^6 SEC cells that were I.P. implanted into each normal mouse. SEC cells (1 × 10^6 tumor cells/mouse) were implanted subcutaneously into the right thigh of the hind limb.
The experimental animals were randomly divided into four groups. Group 1 served as the normal saline control (5 mL/kg B.Wt., I.P.). Group 2 served as the SEC control (1 × 10^6 cells/mouse). Group 3 served as the compound-treated group (5 mg/kg B.Wt., I.P.).
Group 4 received the standard anticancer drug of Doxorubicin (DOX) (5 mg/kg BW, I.P.) and is considered as a reference control. Body weight and survival were recorded daily until the 24th day in both treated and control groups. At the end of experiment, the blood of each group was collected under light anesthesia for estimation of hematological and biochemical assays. The anesthetized animals were then sacrificed for evaluation of the antitumor activity and histopathological examination.
It includes tumor volume, weight, and tumor inhibition ration (TIR%). Time interval measurements of tumor volume using digital Vernier caliper (Tricle Brand, Shanghai, […]
China). Measure tumor length and width using clipper and then calculate tumor volume using formulations V = (L x W x W)/2, where V is tumor volume, W is tumor width, L is […]
tumor length. […]

SMILES	IC50 ([1]; Homo sapiens, MCF7, 48 h) [µM]	melting point [°C]	%Closure, MCF-7 (wound closure) [2]	Annexin V/PI Staining Early (early apoptosis) [3] [%]	Annexin V/PI Staining Late (late apoptosis) [3] [%]	Annexin V/PI Staining Necrosis [3] [%]	Annexin V/PI Staining Total (total cell death) [3]	DNA Content %G0-G1 [4] [%]	DNA Content %G2/M [4] [%]	DNA Content %Pre-G1 [4] [%]	DNA Content %S [4]	further results
CCOC(=O)c1[nH]c2ccccc2c1/C=N/NC(N)=S [Compound 3, Ethyl (E)-3-((2-carbamothioylhydrazineylidene)methyl)-1H-indole-2-carboxylate]	9.42 ± 0.57	229 to 230										IC50 [1]: 10.2 ± 0.53 µM
CCOC(=O)c1[nH]c2ccccc2c1/C=N/Nc1ccc([N+](=O)[O-])cc1 [Compound 10, Ethyl (E)-3-((2-(4-nitrophenyl)hydrazineylidene)methyl)-1H-indole-2-carboxylate]	25.4 ± 1.54	270 to 271										
CCOC(=O)c1[nH]c2ccccc2c1/C=N/N=C/c1c(C(=O)OCC)[nH]c2ccccc12 [Compound 5, Diethyl 3,3’-((1E,1’E)-hydrazine-1,2-diylidenebis(methaneylylidene))bis(1H-indole-2-carboxylate)]	2.73 ± 0.14		48.88% and 48.8%	7.11	22.24	9.91	39.26%	39.07	4.74	39.26	56.2% and 56.19%	fold higher potency than reference drug staurosporine against MCF-7 [1]: 3 fold; apoptosis (apoptosis ratio, early + late) [3]: 29.35%; IC50 [5]: 0.602 ± 0.03 µM; IC50 [6]: 0.156 ± 0.01 µM; IC50 [7]: 0.058 ± 0.029 µM; IC50 ([8]; average of three independent replicates, read-out: IC50 ± SD PI3K-α): 1.73 ± 0.1 µM; fold higher potency than LY294002 against PI3K-α ([8]; versus LY294002): 4.92 fold; IC50 [9]: 2.27 ± 0.11 µM; IC50 [10]: 2.68 ± 0.15 µM; tumor volume [11]: 56.4 mm^3; solid tumor mass [11]: 126.5 mg; tumor proliferation inhibition (TIR%) [11]: 46.9%
CCOC(=O)c1[nH]c2ccccc2c1C=O [Compound 1, ethyl 3-formyl-1H-indole-2-carboxylate]	19.7 ± 2.31											
CCOC(=O)c1[nH]c2ccccc2c1/C=N/NC(N)=O [Compound 6, Ethyl (E)-3-((2-carbamoylhydrazineylidene)methyl)-1H-indole-2-carboxylate]	10.2 ± 0.53	285 to 286										IC50 [1]: 9.42 ± 0.57 µM
CCOC(=O)c1[nH]c2ccccc2c1/C=N/Nc1ccc([N+](=O)[O-])cc1[N+](=O)[O-] [Compound 12, Ethyl (E)-3-((2-(2,4-dinitrophenyl)hydrazineylidene)methyl)-1H-indole-2-carboxylate]			51.85% and 51.8%	4.59	17.44	15.02	37% and 37.05%	59.33	2.55	37.05	38.10%	IC50 ([1]; Homo sapiens, MCF7): 7.03 ± 0.37 µM
O=c1cc(N2CCOCC2)oc2c(-c3ccccc3)cccc12 [LY294002, reference compound]												IC50 [10]: 0.85 ± 0.05 µM
O=c1[nH]cc(F)c(=O)[nH]1 [Compound 5-FU, 5-FU, reference compound]												tumor volume [11]: 43.7 mm^3; solid tumor mass [11]: 110 mg; tumor proliferation inhibition (TIR%) [11]: 58.8%
CCOC(=O)c1[nH]c2ccccc2c1/C=N/n1c(-c2cc3ccccc3[nH]2)n[nH]c1=S [Compound 8, Ethyl (E)-3-(((3-(1H-indol-2-yl)-5-thioxo-1,5-dihydro-4H-1,2,4-triazol-4-yl)imino)methyl)-1H-indole-2-carboxylate]	4.38 ± 0.23		60.74% and 60.7%	2.27	13.45	8.66	24.4% and 24.38%	47.10	6.57	24.38	46.31%	fold higher potency than reference drug staurosporine against MCF-7 [1]: up to 1.9 fold; apoptosis (apoptosis ratio, early + late) [3]: 15.72%

— publication PMC10748079, “Discovery of Potent Indolyl-Hydrazones as Kinase Inhibitors for Breast Cancer: Synthesis, X-ray Single-Crystal Analysis, and In Vitro and In Vivo Anti-Cancer Activity Evaluation” (Pharmaceuticals, 2023)
